{"source": "paper PMC5762315", "about": "“Inhibition of polo-like kinase 4 (PLK4): a new therapeutic option for rhabdoid tumors and pediatric medulloblastoma” (Oncotarget, 2017)", "test_in_all_cases": "biochemical", "format_in_all_cases": "biochemical", "key": {"various kinases [1]": {"target": "various kinases (Homo sapiens, UniProt P12931)", "sequence (P12931 whole entry)": "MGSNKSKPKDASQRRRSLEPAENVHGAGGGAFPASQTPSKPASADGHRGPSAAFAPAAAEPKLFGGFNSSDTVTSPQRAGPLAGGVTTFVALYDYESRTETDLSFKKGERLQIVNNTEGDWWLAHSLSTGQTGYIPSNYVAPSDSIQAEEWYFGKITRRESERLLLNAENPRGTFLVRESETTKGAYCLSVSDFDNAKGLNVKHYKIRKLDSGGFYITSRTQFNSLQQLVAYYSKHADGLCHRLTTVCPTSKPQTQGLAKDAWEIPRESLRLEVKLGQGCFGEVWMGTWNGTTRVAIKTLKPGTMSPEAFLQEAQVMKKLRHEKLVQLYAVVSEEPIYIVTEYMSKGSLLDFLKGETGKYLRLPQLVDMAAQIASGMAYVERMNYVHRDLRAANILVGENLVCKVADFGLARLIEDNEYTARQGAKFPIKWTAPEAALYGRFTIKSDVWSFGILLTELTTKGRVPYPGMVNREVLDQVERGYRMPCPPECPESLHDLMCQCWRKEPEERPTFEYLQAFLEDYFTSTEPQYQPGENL", "conditions": "kinase SRC; ZLYTE"}, "various kinases [2]": {"target": "various kinases (Homo sapiens, UniProt P17612)", "conditions": "kinase PRKACA (PKA); ZLYTE"}, "various kinases [3]": {"target": "T1, various kinases (Homo sapiens, UniProt P42681)", "T1 sequence (P42681 1-527)": "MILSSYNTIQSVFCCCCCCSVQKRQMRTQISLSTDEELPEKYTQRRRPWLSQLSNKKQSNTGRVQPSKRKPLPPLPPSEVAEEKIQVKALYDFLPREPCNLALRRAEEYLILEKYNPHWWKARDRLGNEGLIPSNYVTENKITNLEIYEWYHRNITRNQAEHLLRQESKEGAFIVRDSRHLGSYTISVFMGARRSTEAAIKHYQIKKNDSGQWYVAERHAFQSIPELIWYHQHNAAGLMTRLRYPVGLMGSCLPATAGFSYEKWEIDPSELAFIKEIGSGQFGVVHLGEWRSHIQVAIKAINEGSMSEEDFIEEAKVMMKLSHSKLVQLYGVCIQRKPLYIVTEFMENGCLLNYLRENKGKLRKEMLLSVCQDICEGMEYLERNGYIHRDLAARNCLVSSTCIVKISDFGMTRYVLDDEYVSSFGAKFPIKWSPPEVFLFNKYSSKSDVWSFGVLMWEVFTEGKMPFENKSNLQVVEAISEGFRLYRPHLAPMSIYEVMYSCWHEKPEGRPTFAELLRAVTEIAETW", "conditions": "kinase TXK; ZLYTE"}, "various kinases [4]": {"target": "T2, various kinases (Homo sapiens, UniProt P51817)", "T2 sequence (P51817 1-358)": "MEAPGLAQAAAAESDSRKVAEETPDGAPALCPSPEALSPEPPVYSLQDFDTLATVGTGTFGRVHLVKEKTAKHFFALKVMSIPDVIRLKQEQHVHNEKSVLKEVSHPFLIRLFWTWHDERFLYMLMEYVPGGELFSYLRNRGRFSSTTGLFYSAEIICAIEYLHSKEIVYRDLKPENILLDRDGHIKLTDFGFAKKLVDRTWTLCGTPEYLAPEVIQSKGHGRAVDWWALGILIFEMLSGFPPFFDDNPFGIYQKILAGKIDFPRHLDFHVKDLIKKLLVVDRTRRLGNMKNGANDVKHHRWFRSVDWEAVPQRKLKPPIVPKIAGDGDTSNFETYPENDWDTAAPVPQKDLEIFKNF", "conditions": "kinase PRKX; ZLYTE"}, "various kinases [5]": {"target": "various kinases (Homo sapiens, UniProt P51957)", "sequence (P51957 whole entry)": "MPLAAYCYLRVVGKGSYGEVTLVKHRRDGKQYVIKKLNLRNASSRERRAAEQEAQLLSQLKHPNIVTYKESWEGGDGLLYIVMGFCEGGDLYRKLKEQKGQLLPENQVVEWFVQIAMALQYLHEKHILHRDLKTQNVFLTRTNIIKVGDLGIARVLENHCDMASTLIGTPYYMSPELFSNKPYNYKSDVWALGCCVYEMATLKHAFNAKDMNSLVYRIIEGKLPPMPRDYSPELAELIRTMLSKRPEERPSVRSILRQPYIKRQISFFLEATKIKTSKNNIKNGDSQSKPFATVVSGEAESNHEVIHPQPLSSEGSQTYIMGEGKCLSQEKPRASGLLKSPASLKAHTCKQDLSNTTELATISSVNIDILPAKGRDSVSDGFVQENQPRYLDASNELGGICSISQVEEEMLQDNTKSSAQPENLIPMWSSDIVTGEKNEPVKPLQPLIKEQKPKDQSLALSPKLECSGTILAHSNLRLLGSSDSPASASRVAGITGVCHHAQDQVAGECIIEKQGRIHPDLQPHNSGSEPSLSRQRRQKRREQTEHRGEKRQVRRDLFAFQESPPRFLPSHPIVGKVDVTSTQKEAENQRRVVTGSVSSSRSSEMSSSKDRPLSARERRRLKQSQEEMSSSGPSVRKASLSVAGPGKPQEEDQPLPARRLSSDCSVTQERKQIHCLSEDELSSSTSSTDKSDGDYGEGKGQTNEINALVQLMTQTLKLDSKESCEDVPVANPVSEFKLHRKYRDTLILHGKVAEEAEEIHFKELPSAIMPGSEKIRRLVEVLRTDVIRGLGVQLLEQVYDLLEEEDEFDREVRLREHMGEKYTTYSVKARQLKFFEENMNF", "conditions": "NEK4"}, "various kinases [6]": {"target": "various kinases (Homo sapiens, UniProt P54646)", "sequence (P54646 whole entry)": "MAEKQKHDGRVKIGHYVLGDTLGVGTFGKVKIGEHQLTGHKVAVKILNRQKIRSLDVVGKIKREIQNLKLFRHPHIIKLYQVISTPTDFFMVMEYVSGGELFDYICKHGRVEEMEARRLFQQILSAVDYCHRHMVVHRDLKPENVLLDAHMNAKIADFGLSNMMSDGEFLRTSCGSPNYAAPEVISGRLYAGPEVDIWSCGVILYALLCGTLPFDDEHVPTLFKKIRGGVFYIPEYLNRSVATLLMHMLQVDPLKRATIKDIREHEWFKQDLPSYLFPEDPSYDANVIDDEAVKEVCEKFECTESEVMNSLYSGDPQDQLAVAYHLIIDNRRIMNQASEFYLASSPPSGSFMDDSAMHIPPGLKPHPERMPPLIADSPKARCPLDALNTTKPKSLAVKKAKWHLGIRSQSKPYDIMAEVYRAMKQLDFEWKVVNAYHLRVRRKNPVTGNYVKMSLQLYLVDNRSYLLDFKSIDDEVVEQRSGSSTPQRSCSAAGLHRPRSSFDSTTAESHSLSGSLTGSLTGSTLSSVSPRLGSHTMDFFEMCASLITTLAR"}, "various kinases [7]": {"target": "various kinases (Homo sapiens, UniProt Q13464)", "sequence (Q13464 whole entry)": "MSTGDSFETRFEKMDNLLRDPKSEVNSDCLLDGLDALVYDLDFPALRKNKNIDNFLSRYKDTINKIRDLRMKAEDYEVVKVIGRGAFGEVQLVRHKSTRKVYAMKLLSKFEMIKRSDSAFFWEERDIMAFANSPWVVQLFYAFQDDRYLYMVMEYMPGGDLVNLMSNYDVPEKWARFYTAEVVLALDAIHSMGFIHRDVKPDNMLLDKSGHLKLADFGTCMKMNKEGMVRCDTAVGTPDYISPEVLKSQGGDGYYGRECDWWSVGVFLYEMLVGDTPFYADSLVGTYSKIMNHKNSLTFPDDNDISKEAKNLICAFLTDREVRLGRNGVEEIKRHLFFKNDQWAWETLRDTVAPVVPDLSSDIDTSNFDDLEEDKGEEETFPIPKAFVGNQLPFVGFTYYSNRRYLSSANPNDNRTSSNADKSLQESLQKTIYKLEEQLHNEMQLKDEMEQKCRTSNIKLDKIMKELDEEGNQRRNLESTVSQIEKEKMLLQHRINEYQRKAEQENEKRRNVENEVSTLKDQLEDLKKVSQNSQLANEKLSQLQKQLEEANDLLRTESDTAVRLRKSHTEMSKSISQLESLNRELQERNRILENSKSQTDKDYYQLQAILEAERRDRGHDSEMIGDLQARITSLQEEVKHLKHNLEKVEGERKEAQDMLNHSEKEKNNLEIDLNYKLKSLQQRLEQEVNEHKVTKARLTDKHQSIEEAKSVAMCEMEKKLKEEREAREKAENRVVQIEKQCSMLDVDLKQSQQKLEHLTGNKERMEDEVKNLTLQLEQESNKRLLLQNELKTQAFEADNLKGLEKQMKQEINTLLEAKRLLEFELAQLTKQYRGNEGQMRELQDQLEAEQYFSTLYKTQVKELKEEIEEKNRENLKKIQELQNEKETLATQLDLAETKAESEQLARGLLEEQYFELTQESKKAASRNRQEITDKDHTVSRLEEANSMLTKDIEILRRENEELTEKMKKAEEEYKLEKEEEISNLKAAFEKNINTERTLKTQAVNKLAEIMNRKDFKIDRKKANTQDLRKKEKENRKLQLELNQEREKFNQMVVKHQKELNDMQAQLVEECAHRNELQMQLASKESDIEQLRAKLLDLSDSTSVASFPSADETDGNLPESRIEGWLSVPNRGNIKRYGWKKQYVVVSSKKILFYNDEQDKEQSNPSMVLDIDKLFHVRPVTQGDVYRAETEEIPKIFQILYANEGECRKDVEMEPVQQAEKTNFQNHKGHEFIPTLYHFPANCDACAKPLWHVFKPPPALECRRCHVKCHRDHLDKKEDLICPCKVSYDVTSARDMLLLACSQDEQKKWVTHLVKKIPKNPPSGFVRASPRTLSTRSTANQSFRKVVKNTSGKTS", "conditions": "kinase ROCK1; ZLYTE"}, "various kinases [8]": {"target": "various kinases (Homo sapiens, UniProt Q9BUB5)", "sequence (Q9BUB5 whole entry)": "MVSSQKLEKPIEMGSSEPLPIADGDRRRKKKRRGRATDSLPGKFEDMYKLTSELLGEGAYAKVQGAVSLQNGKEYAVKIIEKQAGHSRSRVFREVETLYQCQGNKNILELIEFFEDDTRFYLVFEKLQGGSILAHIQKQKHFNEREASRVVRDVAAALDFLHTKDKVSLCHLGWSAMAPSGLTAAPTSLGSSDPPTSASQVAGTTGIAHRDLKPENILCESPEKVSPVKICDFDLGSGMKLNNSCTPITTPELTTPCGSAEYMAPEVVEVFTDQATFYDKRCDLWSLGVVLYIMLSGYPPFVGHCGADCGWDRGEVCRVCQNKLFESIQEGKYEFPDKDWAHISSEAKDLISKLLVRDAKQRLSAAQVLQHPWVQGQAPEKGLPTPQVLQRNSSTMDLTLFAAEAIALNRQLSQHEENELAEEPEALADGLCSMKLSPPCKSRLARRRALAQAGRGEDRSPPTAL", "conditions": "MKNK1 (MNK1)"}, "various kinases [9]": {"target": "T3, various kinases (Homo sapiens, UniProt Q9BZL6)", "T3 sequence (Q9BZL6 1-878)": "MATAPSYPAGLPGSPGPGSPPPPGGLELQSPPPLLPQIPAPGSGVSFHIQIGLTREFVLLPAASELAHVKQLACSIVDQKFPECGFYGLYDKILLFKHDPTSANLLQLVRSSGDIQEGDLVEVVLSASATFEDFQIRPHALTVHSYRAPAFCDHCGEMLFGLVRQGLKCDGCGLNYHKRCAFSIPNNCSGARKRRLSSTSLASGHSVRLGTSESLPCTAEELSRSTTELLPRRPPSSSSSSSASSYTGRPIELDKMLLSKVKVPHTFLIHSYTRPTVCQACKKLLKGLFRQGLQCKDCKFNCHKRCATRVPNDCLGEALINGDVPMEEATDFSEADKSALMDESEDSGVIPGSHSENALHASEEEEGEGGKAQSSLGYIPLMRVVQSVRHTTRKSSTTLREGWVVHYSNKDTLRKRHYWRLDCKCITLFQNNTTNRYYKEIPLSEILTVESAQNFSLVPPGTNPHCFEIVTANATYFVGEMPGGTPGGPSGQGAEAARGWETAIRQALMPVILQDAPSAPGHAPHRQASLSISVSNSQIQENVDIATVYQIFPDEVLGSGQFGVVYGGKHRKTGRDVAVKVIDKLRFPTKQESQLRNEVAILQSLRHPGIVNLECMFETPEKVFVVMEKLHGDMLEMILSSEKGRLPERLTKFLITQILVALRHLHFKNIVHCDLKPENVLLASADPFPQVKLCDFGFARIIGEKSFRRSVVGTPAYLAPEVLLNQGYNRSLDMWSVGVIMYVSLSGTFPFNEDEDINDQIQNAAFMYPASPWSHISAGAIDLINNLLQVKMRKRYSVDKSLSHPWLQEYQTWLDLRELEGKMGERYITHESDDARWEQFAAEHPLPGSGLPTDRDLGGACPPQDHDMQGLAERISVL", "conditions": "kinase PRKD2 (PKD2); ZLYTE"}, "various kinases [10]": {"target": "various kinases (Homo sapiens, UniProt Q9H2X6)", "sequence (Q9H2X6 whole entry)": "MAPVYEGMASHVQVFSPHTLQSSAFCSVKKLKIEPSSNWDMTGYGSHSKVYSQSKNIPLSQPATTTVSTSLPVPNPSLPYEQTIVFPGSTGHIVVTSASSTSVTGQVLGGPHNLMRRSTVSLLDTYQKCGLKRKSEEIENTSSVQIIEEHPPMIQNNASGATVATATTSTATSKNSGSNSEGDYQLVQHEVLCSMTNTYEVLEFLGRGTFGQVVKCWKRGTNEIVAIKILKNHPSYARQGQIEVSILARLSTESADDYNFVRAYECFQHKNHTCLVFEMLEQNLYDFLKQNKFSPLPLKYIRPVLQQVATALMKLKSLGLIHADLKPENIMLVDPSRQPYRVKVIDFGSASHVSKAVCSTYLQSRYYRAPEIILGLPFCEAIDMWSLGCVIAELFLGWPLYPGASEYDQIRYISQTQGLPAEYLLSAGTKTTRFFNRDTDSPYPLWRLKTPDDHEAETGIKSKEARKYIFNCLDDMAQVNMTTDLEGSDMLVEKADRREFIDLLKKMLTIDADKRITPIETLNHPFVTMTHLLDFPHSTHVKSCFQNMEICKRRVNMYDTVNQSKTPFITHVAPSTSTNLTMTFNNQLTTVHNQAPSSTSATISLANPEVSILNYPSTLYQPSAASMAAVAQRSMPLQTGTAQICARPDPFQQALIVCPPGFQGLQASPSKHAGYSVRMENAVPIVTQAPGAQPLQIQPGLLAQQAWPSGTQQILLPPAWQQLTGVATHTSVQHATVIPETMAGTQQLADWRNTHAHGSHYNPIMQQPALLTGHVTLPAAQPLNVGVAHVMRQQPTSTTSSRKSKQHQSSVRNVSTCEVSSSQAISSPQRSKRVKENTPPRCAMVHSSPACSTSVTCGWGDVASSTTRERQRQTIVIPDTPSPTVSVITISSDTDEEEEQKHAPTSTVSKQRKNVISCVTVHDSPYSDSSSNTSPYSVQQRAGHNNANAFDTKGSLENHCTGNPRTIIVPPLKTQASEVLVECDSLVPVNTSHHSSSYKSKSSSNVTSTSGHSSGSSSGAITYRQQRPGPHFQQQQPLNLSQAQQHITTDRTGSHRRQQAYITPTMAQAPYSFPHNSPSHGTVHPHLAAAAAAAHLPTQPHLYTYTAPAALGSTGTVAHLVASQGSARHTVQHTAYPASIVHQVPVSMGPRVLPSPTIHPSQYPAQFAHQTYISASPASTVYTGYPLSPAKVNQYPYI", "conditions": "HIPK2"}, "various kinases [11]": {"target": "T4, various kinases (Homo sapiens, UniProt Q9HBY8)", "T4 sequence (Q9HBY8 1-367)": "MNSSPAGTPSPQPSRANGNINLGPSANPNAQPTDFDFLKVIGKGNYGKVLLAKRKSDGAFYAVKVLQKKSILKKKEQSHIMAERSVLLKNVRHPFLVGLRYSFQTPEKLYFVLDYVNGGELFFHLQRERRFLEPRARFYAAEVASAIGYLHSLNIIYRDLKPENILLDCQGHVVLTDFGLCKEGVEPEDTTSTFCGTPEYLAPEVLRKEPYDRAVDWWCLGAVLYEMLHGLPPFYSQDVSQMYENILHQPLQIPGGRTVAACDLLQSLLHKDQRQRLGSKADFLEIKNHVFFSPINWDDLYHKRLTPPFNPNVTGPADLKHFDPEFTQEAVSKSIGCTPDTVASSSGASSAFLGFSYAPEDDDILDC", "conditions": "kinase SGK2; ZLYTE"}}, "note": "Several values for one entry are separate records, joined by “and”; a condition that tells them apart may be missing. Equal entries are not always repeated. Throughout, for % Inhibition Average: test concentration or dose not given here. Throughout, for % Inhibition Duplicate #1: test concentration or dose not given here. Throughout, for % Inhibition Duplicate #2: test concentration or dose not given here.", "data": [{"smiles": "COc1ccc2c(c1)[C@]1(C[C@H]1c1ccc3c(/C=C/c4ccc(CN5C[C@@H](C)O[C@@H](C)C5)cc4)n[nH]c3c1)C(=O)N2", "note": "[CFI-400945]", "values": [{"measurement": "% Inhibition Average", "setting": "various kinases [1]", "result": 13, "unit": "%"}, {"measurement": "% Inhibition Duplicate #1", "setting": "various kinases [1]", "result": 13, "unit": "%"}, {"measurement": "% Inhibition Duplicate #2", "setting": "various kinases [1]", "result": 13, "unit": "%"}, {"measurement": "% Inhibition Average", "setting": "various kinases [2]", "result": 3, "unit": "%"}, {"measurement": "% Inhibition Duplicate #1", "setting": "various kinases [2]", "result": 4, "unit": "%"}, {"measurement": "% Inhibition Duplicate #2", "setting": "various kinases [2]", "result": 2, "unit": "%"}, {"measurement": "% Inhibition Average", "setting": "various kinases [3]", "result": 7, "unit": "%"}, {"measurement": "% Inhibition Duplicate #1", "setting": "various kinases [3]", "result": 6, "unit": "%"}, {"measurement": "% Inhibition Duplicate #2", "setting": "various kinases [3]", "result": 8, "unit": "%"}, {"measurement": "% Inhibition Average", "setting": "various kinases [4]", "result": 5, "unit": "%"}, {"measurement": "% Inhibition Duplicate #1", "setting": "various kinases [4]", "result": 6, "unit": "%"}, {"measurement": "% Inhibition Duplicate #2", "setting": "various kinases [4]", "result": 4, "unit": "%"}, {"measurement": "% Inhibition", "setting": "various kinases [5]", "result": "3% and 1%"}, {"measurement": "% Inhibition", "setting": "various kinases [6]; AMPK (A2/B1/G2)", "result": "27% and 22%"}, {"measurement": "% Inhibition", "setting": "various kinases [6]; AMPK (A2/B1/G3)", "result": "9% and 15%"}, {"measurement": "% Inhibition", "setting": "various kinases [6]; AMPK (A2/B2/G3)", "result": "9% and 10%"}, {"measurement": "% Inhibition", "setting": "various kinases [6]; AMPK A2/B1/G1", "result": "5% and 6%"}, {"measurement": "% Inhibition Average", "setting": "various kinases [7]", "result": 0, "unit": "%"}, {"measurement": "% Inhibition Duplicate #1", "setting": "various kinases [7]", "result": 0, "unit": "%"}, {"measurement": "% Inhibition Duplicate #2", "setting": "various kinases [7]", "result": 0, "unit": "%"}, {"measurement": "% Inhibition", "setting": "various kinases [8]", "result": "6% and 1%"}, {"measurement": "% Inhibition Average", "setting": "various kinases [9]", "result": 2, "unit": "%"}, {"measurement": "% Inhibition Duplicate #1", "setting": "various kinases [9]", "result": 0, "unit": "%"}, {"measurement": "% Inhibition Duplicate #2", "setting": "various kinases [9]", "result": 4, "unit": "%"}, {"measurement": "% Inhibition", "setting": "various kinases [10]", "result": "2% and 0%"}, {"measurement": "% Inhibition Average", "setting": "various kinases [11]", "result": 5, "unit": "%"}, {"measurement": "% Inhibition Duplicate #1", "setting": "various kinases [11]", "result": 4, "unit": "%"}, {"measurement": "% Inhibition Duplicate #2", "setting": "various kinases [11]", "result": 5, "unit": "%"}]}]}
